In brackets after ≈: the same amount, converted by molar mass. Several values for one entry are separate records, joined by “and”; a condition that tells them apart may be missing. Identical values can stand only once. Entries after “also recorded” stand apart in the source; their conditions may differ. Like-named read-outs stand apart in the source and are kept apart here.
Tests used:
[1] = test system: MDA-MB-231; experiment: MDA-MB-231 clone (colony) formation in vitro; format: cell-based, human; settings: 8 days
Experimental: Inhibitory efficacy in clone formation of LI-51255 was tested by following the procedure described earlier with some modifications (Wu et al. 2005). Briefly, MDA-MB-231 cells were harvested and seeded into 6-well plates (100 cells/ml). The cells were allowed to grow for 4 days and thereafter, the cells were incubated with DMEM containing either 0.5% DMSO or 25 μg/ml AKBA or different concentrations (1.0, 1.5, 2.0, 2.5 μg/ml) of LI-51255 for further 8 days. Fresh medium containing test agents was replaced at every 24 h. Finally, the wells were washed three times with PBS and fixed in methanol for 15 min. The cells were stained with Giemsa stain and observed under microscope. The image of the stained wells were captured digitally (Kodak Image Station 4000MM, Carestream Health Inc., New Haven, Conn.) and number of colonies were counted and analyzed by using NIH Image J software.

[2] = test system: Freund's Adjuvant-induced arthritis in Wistar Albino rats; experiment: Freund's adjuvant-induced arthritis, paw edema; format: in vivo; settings: 10 mg/kg daily oral for 30 days; edema 13 days after Freund's Adjuvant
Experimental: The Wistar Albino rats were divided into four groups with […] each group. The two treatment groups, each containing 6 animals, were orally supplemented with one of the two analogs namely glycinate of AKBA (10) or piperazine amide of AKBA (23) in 1% carbomethylcellulose (CMC) at a daily dose of 10 mg/kg for 30 days. The control group of animals received same volume of 1% CMC orally and a positive control group received 10 mg/kg daily dose of prednisolone for direct comparison. Following the 30 day treatment and one hour after the last dose all the animals were challenged with 0.1 mL of 1% solution of Freund's Adjuvant through a subcutaneous injection in the sub-plantar region of left hind paw. The paw volume was measured using a plethymograph. The difference between the paw volumes measured before and 13 days after the Freund's Adjuvant injection was taken as edema volume. The percentage inhibition was calculated by comparing the mean edema of the control group and treatment groups.

[3] = test system: HePG2; experiment: Cytotoxicity MTT assay, HePG2; format: cell-based, human; parameters: unit not given here
Experimental: (§1) MTT [3-(4,5-dimethylthiazol-2-yl)-2,5-diphenyltetrazolium bromide] incorporation based cell proliferation assay was performed as described previously (Reference). The cytotoxic efficacy of some analogs was evaluated in different cell lines by MTT cell proliferation assay kit (Roche Applied Sciences, Germany). The assay was carried out according to the instruction provided by the vendor. Briefly, in brief, equal numbers of cells was plated in 96-well flat-bottomed plates in 100 μl of medium and were exposed to different analogs selected from 1 to 63 at various concentrations up to 10 μg/ml for a period of three days. Vehicle control culture wells received only a maximum of 0.5% DMSO. Thereafter, 0.5 mg/ml of MTT reagent was added to each well and the microplate was incubated further for 4 h at 37° C. in presence of 5% CO2. Finally, the cells were solubilized by adding solubilizing solution and allowed to incubate at 37° C. overnight. After complete solubilization of the formazan crystals the absorbance was read at 540 nm in a microplate reader (BioRad, USA). The results (mean OD±SD) obtained from quadruplicate wells were used in calculation to determine the inhibition of cell proliferation (50% of inhibitory concentration, IC50) of the test compounds.
(§2) The cytotoxic properties of some analogs were evaluated by MTT incorporation assay. The methodology of the assay procedure was the same as mentioned in example 41.

[4] = test system: MDA-MB-231; experiment: MTT cell proliferation assay, MDA-MB-231; format: cell-based, human; settings: Table 4; for IC50: Homo sapiens, MDA-MB-231
Experimental: as §1, §2

[5] = test system: Jurkat; format: cell-based, human; parameters: minimum inhibitory concentration (MIC) Jurkat: unit not given here; settings: MTT assay
Experimental: as §1, §2

[6] = test system: MCF-7; experiment: MTT cell proliferation assay, MCF-7; format: cell-based, human; settings: Table 4; for IC50: Homo sapiens, MCF7
Experimental: as §1, §2

[7] = test system: PC3M; experiment: Cytotoxicity MTT assay, PC3M; format: cell-based, human; parameters: minimum inhibitory concentration (MIC) PC3M: unit not given here; settings: for minimum inhibitory concentration (MIC) PC3M: MTT assay
[8] = test system: VEGF; settings: HUVEC, 24 h, immunoblot; listed as LI51255
Experimental: Equal number of HUVEC human primary endothelial cells was plated in 35 mm culture dishes. The cells exposed to either 0.5% DMSO as vehicle or LI-51255 for 24 h. The cells were lysed in cell lysis buffer. The protein concentration of each lysate was determined by the BCA method (BioRad, Hercules, Calif.). Equal amount of cell lysates proteins was resolved in SDS-PAGE and the transferred proteins on nitrocellulose membrane were reacted with human anti-VEGF antibody (Cell Signaling Technology, Beverly, Mass.) overnight at 4° C. Immunoreactive proteins were detected using were developed with Super SignalWest Pico Chemiluminescent substrate (Pierce Biotechnology Inc.) and the band intensities were analyzed using Molecular Imaging Software, version 4.0 (Eastman Kodak Company, Rochester, N.Y.). Relative density was determined by normalization of the density of each blot with that of corresponding β-actin.

[9] = test system: Human umbilical vein endothelial cells (HUVEC); experiment: In vitro capillary-like tube formation assay; format: cell-based; settings: HUVEC on Cultrex, 1, 2.5 and 5 μg/ml, 16 h; listed as LI-51255
Experimental: In vitro capillary formation assay was performed with Human umbilical vein endothelial cells (HUVEC), cultured on 10 mg/ml basement membrane extract (BME—Cultrex®, R&D Systems, USA) bed. The protocol of in vitro endothelial tube formation assay was the same as described earlier with some modifications (Reference). Briefly, four hundred microliters of Cultrex was coated at 4° C. in each well of 24-well culture plate and allowed to gel at 37° C. for 1 h. HUVECs were plated at a density of 7.5×10^4 cells per well with 400 μl of DMEM supplemented with 10% fetal bovine serum and 4.5 g/l D-glucose. The cells were then treated with either 0.5% DMSO or different concentrations of LI-51255 for 16 hours. Pictures were taken under a Nikon Eclipse TS 100 microscope equipped with a Nikon Coolpix camera (FIG. 1B).

[10] = test system: AKT pathway; experiment: AKT pathway western immunoblot in MDA-MB-231 cells; format: cell-based, human; settings: MDA-MB-231, 10 μg/ml, 0-240 min
Experimental: Equal number of MDA-MB-231 human breast tumor cells (ER-) was plated in 25 cm^2 cell culture flasks. The cells treated with either 0.5% DMSO as vehicle or 10 μg/ml of LI-51255 for 0, 5, 10, 20, 30, 60, 120 and 240 min. The cells were lysed in cell lysis buffer.

[11] = test system: B16 murine melanoma cells; experiment: Cell cycle analysis by flow cytometry; format: cell-based; settings: 24 h
Experimental: For flow cytometry, cells were harvested after the treatment period, washed with phosphate buffered saline (PBS), and adjusted the cell count at 2×10^6 cells per milliliter. The cells were fixed in 70% ethanol for 30 min at 4° C. Cells were then washed two times with PBS and stained with 0.5 μg/ml propidium iodide at 37° C. for 30 min and analyzed by flow cytometry. Data were acquired on a FACS Scan flow cytometer (Becton Dickinson) and analyzed by using the Cellquest software.

[12] = test system: B16 F0 melanoma xenograft; experiment: B16 F0 melanoma xenograft model; format: in vivo, C57B6J mice; settings: twelve days; for % reduction of tumor burden (w.r.t control): listed as LI-51255
Experimental: In vivo efficacy of LI-51255 against melanoma growth was evaluated in B16 F0 melanoma xenograft model of C57B6J mice. C57B6J mice of 6 weeks age (body weight 18-22 g) were purchased from National Institute of Nutrition (NIN), Hyderabad (India). Animals study protocols were approved by Institutional Ethics Committee (IAEC). All the studies were performed in compliance with the Committee for the Purpose of Control and Supervision of Experiments on Animals (CPCSEA) guidelines and OECD guidelines. Animals were allowed free access to standard feed and provided charcoal filtered and UV exposed water ad libitum. The animals were maintained at a controlled temperature (24-26° C.), humidity (45-70%), and 12 h/12 h of light/dark cycle.
To induce the melanoma tumor formation, sub-confluent B16F0 cells were harvested by brief trypsinization and 1×10^6 cells were injected subcutaneously in 0.2 mL phosphate-buffered saline. Drug treatment was started after development of palpable tumors (3-5 days after implantation of the cells). Drugs were prepared in phosphate-buffered saline (10% DMSO, v/v) and either 75 mg/kg of DTIC or different doses of LI-51255 (10 or 20 mg/kg) was administered daily through intra-peritoneal route. Vehicle treated control animals received only 10% DMSO in phosphate buffered saline. After twelve days of treatment, the animals were sacrificed by CO2 inhalation and tumors were excised and weighed.

[13] = test system: Brine shrimp; experiment: Brine shrimp lethality; format: in vivo; settings: for IC50: read-out: Brine shrimp lethality IC50
Experimental: The Brine shrimp lethality was evaluated for the analogs 1 to 28 and compared the activities with those of AKBA and a standard compound podophyllotoxin. The data was summarized already disclosed in our earlier application Ser. No. 10/540,257 which is granted under U.S. Pat. No. 7,625,947 which is incorporated herein by reference. The magnitude of Brine shrimp lethality obtained for the analogs has significant correlation with 5-LOX inhibitory activity.

[14] = 10 mg/kg daily intra-peritoneal
[15] = 20 mg/kg daily intra-peritoneal

Molecule: 3-O-acetyl-11-keto-β-boswellic acid [AKBA, reference compound]
- MDA-MB-231 colony formation ([1]; 25 μg/ml): inhibition of MDA-MB-231 colony formation

Molecule: C[C@@H]1CC[C@]2(C)CC[C@]3(C)C(=CC(=O)C4[C@@]5(C)CC[C@@H](OC(=O)CN)[C@](C)(C(=O)O)C5CC[C@]43C)C2[C@H]1C (stereo partly drawn) [Analog 10]
- inhibition of paw edema [2]: 12%
- minimum inhibitory concentration (MIC) HePG2 [3]: >150
- IC50 [4]: 19.5 µg/mL (≈ 36.9 µM)
- minimum inhibitory concentration (MIC) Jurkat [5]: 50
- IC50 [6]: 26.9 µg/mL (≈ 51 µM)
- minimum inhibitory concentration (MIC) PC3M [7]: 50

Molecule: CC(=O)OC1CC[C@@]2(C)C(CC[C@]3(C)C2C(=O)C=C2C4[C@@H](C)[C@H](C)CC[C@]4(C)CC[C@]23C)[C@@]1(C)C(=O)NCCN (stereo partly drawn) [Analog 21, N-(3-O-Acetyl-11-keto-[beta]-boswelloyl)-ethylenediamine]
- VEGF protein expression [8]: strongly inhibited
- capillary-like tube formation [9]: dose-dependent inhibition; also recorded: inhibits capillary-like tube formation
- IC50 values MDA-MB-231 [4]: 3.45 µg/mL (≈ 6.22 µM)
- AKT protein expression [10]: remains the same
- phospho-raf (ser 259) expression [10]: up-regulation
- phosphorylated AKT (ser 473) protein expression ([10]; listed as LI-51255): deactivates AKT pathway; also recorded: time dependent down regulation
- MDA-MB-231 colony formation ([1]; 1.0, 1.5, 2.0, 2.5 μg/ml, listed as LI-51255): potentially inhibits the growth and development; also recorded: inhibition of MDA-MB-231 colony formation
- cell cycle progression [11]: arrests the growth of B16 murine melanoma cells at the subG1 phase
- G1 ([11]; LI-51255 5 (mg/ml)): 74.74
- G2/M ([11]; LI-51255 5 (mg/ml)): 12.2
- S ([11]; LI-51255 5 (mg/ml)): 11.18
- Sub G1 ([11]; LI-51255 5 (mg/ml)): 1.7
- G1 ([11]; LI-51255 10 (mg/ml)): 60.25
- G2/M ([11]; LI-51255 10 (mg/ml)): 9.19
- S ([11]; LI-51255 10 (mg/ml)): 10.87
- Sub G1 ([11]; LI-51255 10 (mg/ml)): 19.76
- Average weight of tumor [12, 14]: 4.575 gm
- % reduction of tumor burden (w.r.t control) [12, 14]: 27.25% and 27.253%
- Average weight of tumor [12, 15]: 3.050 gm
- % reduction of tumor burden (w.r.t control) [12, 15]: 51.5% and 51.502%
- IC50 values MCF-7 [6]: 12.98 µg/mL (≈ 23.4 µM)

Molecule: CC(=O)OC1CCC2(C)C(CCC3(C)C2C(=O)C=C2C4C(C)C(C)CCC4(C)CCC23C)C1(C)C(=O)N1CCNCC1 (stereo not drawn) [Analog 23]
- inhibition of paw edema [2]: 16.4% and 16.3%
- minimum inhibitory concentration (MIC) HePG2 [3]: 40
- IC50 values MDA-MB-231 [4]: IC50 at 5.53 μg/ml
- IC50 ([13]; in vivo): 880 nM
- minimum inhibitory concentration (MIC) Jurkat [5]: 50
- IC50 values MCF-7 [6]: IC50 at 9.03 μg/ml
- cytotoxicity against PC3M [7]: significantly more potent
- minimum inhibitory concentration (MIC) PC3M [7]: 10

Molecule: CC(=O)O[C@@H]1CC[C@@]2(C)C(CC[C@]3(C)C2C(=O)C=C2C4[C@@H](C)[C@H](C)CC[C@]4(C)CC[C@]23C)[C@@]1(C)N (stereo partly drawn) [Analog 25]
- minimum inhibitory concentration (MIC) HePG2 [3]: 50
- IC50 [4]: 13.2 µg/mL (≈ 27.3 µM)
- inhibitory capabilities against brine shrimp ([13]; in vivo): potent inhibitory capabilities
- minimum inhibitory concentration (MIC) Jurkat [5]: 50
- IC50 [6]: 14 µg/mL (≈ 28.9 µM)
- cytotoxicity against PC3M [7]: significantly more potent
- minimum inhibitory concentration (MIC) PC3M [7]: 30

Molecule: COc1cc([C@@H]2c3cc4c(cc3[C@H](O)[C@H]3COC(=O)[C@H]23)OCO4)cc(OC)c1OC [podophyllotoxin, reference compound]
- IC50 [13]: 3000 nM

Molecule: C[C@]12C=CC(=O)C=C1CC[C@@H]1[C@@H]2[C@@H](O)C[C@@]2(C)[C@H]1CC[C@]2(O)C(=O)CO [prednisolone, reference compound]
- inhibition of paw edema [2]: 16.8%

Source: patent US8748598B2, “Analogs of 3-O-acetyl-11-keto-beta-boswellic acid” (Laila Nutraceuticals, priority 2004, dated 2014)
